The nature of data set [1]: MRT (0 to infinity) in Sprague-Dawley rat at 2 mg/kg,iv administration measured for 0.25 to 24 hrs by LC-MS/MS analysis. The class given is ADME, organism-based. To be noted: in vivo, time 0.25-24 hrs.
Data set [2] concerns HCT-116. As to the kind of experiment: Growth inhibition of human HCT-116 cells incubated for 48 hrs by CCK-8 assay. The class given is functional. A general note: Tetrazolium dyes change colour on reduction, which living cells bring about.
Data set [3] concerns the target Cyclin-dependent kinase 8 (Homo sapiens, UniProt P49336). As to the kind of experiment: Inhibition of CDK8 (unknown origin).
Data set [4] can be described thus: Intrinsic clearance in human liver microsomes at 100 uM measured upto 60 mins in presence of NADPH by LC-MS/MS analysis. The data set is classed as ADME, Microsome. The following applies: 1 h. On the technique in general: Liver microsomes are a subcellular fraction often used to study metabolism.
Another data set deals with CYP2C9 (Homo sapiens, UniProt P11712). Put plainly: Inhibition of CYP2C9 in human liver microsomes using sulfaphenazole as […] at 10 uM preincubated for 10 mins followed by NADPH addition measured after 15 mins by LC-MS/MS analysis relative to control. The data set is classed as ADME, Microsome. The following applies: probe sulfaphenazole, time 25 min.
Another data set concerns the target CYP2C19 (Homo sapiens, UniProt P33261). Put plainly: Inhibition of CYP2C19 in human liver microsomes using benzylnirvanol as […] at 10 uM preincubated for 10 mins followed by NADPH addition measured after 15 mins by LC-MS/MS analysis relative to control. The data set is classed as ADME, Microsome. The following applies: probe benzylnirvanol, time 25 min.

Data set [5] is described as follows: Tmax in Sprague-Dawley rat at 2 mg/kg,iv administration measured for 0.25 to 24 hrs by LC-MS/MS analysis. The data set is classed as ADME, organism-based. The following applies: in vivo, time 0.25-24 hrs.
A short description of data set [6]: AUC (0 to t) in Sprague-Dawley rat at 2 mg/kg,iv administration measured for 0.25 to 24 hrs by LC-MS/MS analysis. The data set is classed as ADME, organism-based. To be noted: in vivo, time 0.25-24 hrs.
Data set [7] can be described thus: Apparent volume of distribution in Sprague-Dawley rat at 2 mg/kg,iv administration measured for 0.25 to 24 hrs by LC-MS/MS analysis. The data set is classed as ADME, organism-based. The following applies: in vivo, time 0.25-24 hrs, read-out: Vz.
The nature of data set [8]: AUC (0 to t) in Sprague-Dawley rat at 10 mg/kg,po administration measured for 0.25 to 24 hrs by LC-MS/MS analysis. To be noted: in vivo, time 0.25-24 hrs. The class given is ADME, organism-based.
Data set [9] in a line: MRT (0 to t) in Sprague-Dawley rat at 10 mg/kg,po administration measured for 0.25 to 24 hrs by LC-MS/MS analysis. To be noted: in vivo, time 0.25-24 hrs. The class given is ADME, organism-based.
Data set [10] concerns the target Serine/threonine-protein kinase Nek1 (Homo sapiens) (UniProt Q96PY6). Put plainly: Inhibition of human NEK1 at 100 nM by kinase profiling assay relative to control.
Data set [11] concerns the target Aurora kinase B (Homo sapiens) (UniProt Q96GD4). Put plainly: Inhibition of human AurB at 100 nM by kinase profiling assay relative to control.
In data set [12] the target is Rho-associated protein kinase 1 (Homo sapiens) (UniProt Q13464). Put plainly: Inhibition of human ROCK1 at 100 nM by kinase profiling assay relative to control.
Data set [13] relates to HCT-116. Put plainly: Induction of apoptosis in human HCT-116 cells assessed as increase in late apoptotic cells incubated for 48 hrs by Annexin V-FITC/PI staining based flow cytometric analysis. The data set is classed as functional, cell-based. Background: A flow cytometer gives signals particle by particle.
Data set [14] concerns HCT-116. As to the kind of experiment: Induction of apoptosis in human HCT-116 cells assessed as downregulation of PARP expression at 25 to 400 nM incubated for 48 hrs by Western blotting analysis. The class given is functional, cell-based. The following applies: dose 25-400 nM.
Data set [15] relates to HCT-116. Put plainly: Antitumor activity against human HCT-116 cells xenografted in BALB/c mouse assessed as tumor growth inhibition at po administrated once daily for 3 weeks. The data set is classed as functional, organism-based.
Data set [16] concerns HCT-116. As to the kind of experiment: Antitumor activity against human HCT-116 cells xenografted in BALB/c mouse assessed as downregulation of RNA polymerase II phosphorylation at 50 mg/kg,po administrated once daily for 3 weeks by Western blotting analysis. The class given is functional, organism-based.
Data set [17] deals with HCT-116. Put plainly: Antitumor activity against human HCT-116 cells xenografted in BALB/c mouse assessed as downregulation of Mcl-1 expression at 25 mg/kg,po administrated once daily for 3 weeks by Western blotting analysis. The data set is classed as functional, organism-based.
Data set [18] deals with HCT-116. As to the kind of experiment: Antitumor activity against human HCT-116 cells xenografted in BALB/c mouse assessed as downregulation of PARP expression at 25 mg/kg,po administrated once daily for 3 weeks by Western blotting analysis. The class given is functional, organism-based.

The source made the active and inactive calls. The rule behind the calls is not given here.

Rho-associated protein kinase 1 (Homo sapiens), sequence (Q13464 2-1354 limits assumed): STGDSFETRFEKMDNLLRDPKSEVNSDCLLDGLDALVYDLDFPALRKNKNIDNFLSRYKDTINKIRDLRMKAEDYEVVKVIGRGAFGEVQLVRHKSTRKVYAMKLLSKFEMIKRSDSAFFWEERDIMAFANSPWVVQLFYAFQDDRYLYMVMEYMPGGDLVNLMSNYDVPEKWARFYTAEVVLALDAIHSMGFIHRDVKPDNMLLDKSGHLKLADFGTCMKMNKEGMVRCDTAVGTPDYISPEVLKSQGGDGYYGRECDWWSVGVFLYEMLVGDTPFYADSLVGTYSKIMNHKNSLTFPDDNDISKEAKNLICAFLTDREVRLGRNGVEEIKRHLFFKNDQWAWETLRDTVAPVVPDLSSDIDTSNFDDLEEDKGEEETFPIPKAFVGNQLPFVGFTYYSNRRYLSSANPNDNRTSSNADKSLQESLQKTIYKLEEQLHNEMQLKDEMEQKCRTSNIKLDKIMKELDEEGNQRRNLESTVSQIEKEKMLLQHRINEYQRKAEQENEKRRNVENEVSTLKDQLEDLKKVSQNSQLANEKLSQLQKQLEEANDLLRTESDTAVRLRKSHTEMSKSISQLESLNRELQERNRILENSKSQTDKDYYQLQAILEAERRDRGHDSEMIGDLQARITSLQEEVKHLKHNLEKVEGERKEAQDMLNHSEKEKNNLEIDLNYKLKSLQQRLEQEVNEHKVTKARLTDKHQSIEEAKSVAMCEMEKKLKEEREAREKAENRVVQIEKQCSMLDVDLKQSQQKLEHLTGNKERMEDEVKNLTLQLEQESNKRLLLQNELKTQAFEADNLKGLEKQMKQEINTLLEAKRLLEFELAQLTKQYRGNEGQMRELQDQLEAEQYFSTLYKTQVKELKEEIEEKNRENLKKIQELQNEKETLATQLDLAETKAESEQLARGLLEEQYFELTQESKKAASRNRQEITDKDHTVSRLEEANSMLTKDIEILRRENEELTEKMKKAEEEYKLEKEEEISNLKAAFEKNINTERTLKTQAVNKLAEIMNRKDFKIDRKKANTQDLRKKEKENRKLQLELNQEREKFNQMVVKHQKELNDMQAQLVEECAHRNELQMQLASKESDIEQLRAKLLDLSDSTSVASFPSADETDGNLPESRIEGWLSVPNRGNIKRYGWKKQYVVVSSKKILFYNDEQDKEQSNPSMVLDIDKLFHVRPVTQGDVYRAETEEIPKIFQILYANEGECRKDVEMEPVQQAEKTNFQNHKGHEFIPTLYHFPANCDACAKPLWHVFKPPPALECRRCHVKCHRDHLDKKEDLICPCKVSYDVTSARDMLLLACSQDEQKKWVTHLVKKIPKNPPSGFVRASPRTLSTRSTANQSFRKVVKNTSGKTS
Serine/threonine-protein kinase Nek1 (Homo sapiens), sequence (Q96PY6 whole entry): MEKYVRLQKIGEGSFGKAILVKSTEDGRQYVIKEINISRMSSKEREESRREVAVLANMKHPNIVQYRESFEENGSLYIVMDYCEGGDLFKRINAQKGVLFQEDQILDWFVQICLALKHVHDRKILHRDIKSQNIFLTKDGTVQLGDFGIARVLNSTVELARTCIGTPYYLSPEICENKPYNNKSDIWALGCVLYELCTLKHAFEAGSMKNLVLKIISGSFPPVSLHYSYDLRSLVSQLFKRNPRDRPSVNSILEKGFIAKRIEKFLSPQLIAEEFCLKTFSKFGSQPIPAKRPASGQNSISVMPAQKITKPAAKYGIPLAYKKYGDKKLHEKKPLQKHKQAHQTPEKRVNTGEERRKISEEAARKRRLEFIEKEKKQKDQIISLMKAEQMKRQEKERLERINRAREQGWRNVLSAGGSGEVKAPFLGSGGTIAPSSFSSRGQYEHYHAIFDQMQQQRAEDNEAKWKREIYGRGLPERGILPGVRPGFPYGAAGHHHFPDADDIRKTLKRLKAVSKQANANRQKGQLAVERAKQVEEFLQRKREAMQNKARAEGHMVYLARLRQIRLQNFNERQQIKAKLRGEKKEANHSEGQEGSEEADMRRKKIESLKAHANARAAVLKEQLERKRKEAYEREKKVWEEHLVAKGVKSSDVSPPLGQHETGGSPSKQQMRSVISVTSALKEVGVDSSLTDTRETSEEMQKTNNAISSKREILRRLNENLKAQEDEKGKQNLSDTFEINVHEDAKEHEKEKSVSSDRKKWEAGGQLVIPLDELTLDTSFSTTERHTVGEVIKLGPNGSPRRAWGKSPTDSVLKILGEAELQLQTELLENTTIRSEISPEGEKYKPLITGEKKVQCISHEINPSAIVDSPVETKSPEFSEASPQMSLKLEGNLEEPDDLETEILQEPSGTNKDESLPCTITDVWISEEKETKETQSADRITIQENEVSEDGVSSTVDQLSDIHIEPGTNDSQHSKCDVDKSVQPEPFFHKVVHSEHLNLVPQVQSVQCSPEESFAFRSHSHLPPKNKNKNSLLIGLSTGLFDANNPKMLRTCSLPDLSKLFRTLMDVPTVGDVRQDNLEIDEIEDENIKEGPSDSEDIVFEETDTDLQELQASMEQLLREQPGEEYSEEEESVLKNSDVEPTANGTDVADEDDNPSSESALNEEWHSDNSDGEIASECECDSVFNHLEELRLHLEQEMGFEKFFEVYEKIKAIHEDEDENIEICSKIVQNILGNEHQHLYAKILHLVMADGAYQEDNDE
Aurora kinase B (Homo sapiens), sequence (Q96GD4 whole entry): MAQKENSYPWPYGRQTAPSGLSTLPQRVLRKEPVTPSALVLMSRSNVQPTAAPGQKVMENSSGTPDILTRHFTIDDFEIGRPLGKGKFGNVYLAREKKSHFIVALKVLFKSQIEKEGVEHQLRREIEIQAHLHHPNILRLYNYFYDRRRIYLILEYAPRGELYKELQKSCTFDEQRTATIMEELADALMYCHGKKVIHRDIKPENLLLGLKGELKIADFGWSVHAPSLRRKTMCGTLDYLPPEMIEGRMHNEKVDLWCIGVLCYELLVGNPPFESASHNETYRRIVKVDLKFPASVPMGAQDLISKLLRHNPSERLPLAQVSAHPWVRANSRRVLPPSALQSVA
CYP2C19, sequence (P33261 whole entry): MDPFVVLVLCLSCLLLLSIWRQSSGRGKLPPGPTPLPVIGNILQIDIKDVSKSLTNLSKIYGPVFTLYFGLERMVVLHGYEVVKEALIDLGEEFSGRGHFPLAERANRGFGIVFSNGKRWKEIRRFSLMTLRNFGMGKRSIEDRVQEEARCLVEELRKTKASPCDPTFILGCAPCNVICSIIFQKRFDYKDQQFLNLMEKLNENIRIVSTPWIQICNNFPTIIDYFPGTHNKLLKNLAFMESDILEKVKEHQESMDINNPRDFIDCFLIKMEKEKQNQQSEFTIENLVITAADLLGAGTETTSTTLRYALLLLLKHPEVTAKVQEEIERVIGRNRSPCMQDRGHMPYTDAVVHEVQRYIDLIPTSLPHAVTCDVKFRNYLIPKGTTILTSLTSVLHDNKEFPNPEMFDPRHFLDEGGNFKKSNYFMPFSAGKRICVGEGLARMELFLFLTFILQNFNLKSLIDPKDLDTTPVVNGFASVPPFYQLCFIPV
CYP2C9, sequence (P11712 whole entry): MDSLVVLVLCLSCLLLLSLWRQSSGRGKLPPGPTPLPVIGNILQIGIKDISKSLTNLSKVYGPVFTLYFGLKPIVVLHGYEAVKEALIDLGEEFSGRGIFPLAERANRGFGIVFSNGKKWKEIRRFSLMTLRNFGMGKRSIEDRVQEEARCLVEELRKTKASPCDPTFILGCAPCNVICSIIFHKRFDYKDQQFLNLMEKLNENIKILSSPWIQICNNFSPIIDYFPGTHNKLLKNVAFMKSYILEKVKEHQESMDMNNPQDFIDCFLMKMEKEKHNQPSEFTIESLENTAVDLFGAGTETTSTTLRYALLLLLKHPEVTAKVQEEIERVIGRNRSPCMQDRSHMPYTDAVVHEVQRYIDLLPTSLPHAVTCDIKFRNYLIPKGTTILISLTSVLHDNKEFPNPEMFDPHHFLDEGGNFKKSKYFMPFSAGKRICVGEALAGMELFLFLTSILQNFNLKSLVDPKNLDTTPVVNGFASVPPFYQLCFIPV
Cyclin-dependent kinase 8, sequence (P49336 whole entry): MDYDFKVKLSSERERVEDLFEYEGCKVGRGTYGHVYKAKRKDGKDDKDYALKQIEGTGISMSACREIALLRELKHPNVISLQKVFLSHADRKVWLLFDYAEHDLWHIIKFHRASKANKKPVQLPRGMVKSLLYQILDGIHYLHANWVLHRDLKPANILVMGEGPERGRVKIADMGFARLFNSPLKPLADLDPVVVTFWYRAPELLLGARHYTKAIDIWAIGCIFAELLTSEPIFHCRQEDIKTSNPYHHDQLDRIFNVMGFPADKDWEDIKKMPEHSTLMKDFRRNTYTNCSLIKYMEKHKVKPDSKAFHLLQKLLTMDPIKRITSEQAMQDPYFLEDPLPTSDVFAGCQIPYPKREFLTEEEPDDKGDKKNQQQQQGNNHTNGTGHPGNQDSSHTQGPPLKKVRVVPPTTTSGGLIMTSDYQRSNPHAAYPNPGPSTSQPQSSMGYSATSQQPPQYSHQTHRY

The MRT inf is the average time that molecules of a dose stay in the body. The term GI50 denotes the concentration giving 50% growth inhibition. What is called IC50 is the concentration needed to halve the response being measured. A low value points to greater potency. As usually defined, the inhibition is the percentage by which the read-out fell short of the control. Read a low inhibition as little suppression. One may read the Tmax as the time at which the peak concentration occurs. By AUC(0-t) is commonly meant the area under the concentration-time curve up to a stated or last time point. Read a high AUC(0-t) as high exposure. The MRT last is the average time that molecules of a dose stay in the body. Molecule `CC(C)n1nnc2ccc(-c3ccnc(Nc4cc(C(=O)N5CCCN(C)CC5)ccn4)c3)cc21` returned an MRT inf in data set [1] of 1.77 h. This molecule also registered a GI50 in the data set on HCT-116 [2] of 50 nM. This molecule also gave an IC50 in [3] of more than 500 nM. The CLH in data set [4] stood at 49.6 µL/min/mg. For the same molecule, the inhibition at 0.25 h, 10 µM against CYP2C9 came to 27.9%; against CYP2C19, 24.5%. For the same molecule, the Tmax in data set [5] is 4.98 min. Besides, the AUC(0-t) in data set [6] was 361 ng·h/mL; in [8], 168 ng·h/mL. Besides, the Vd in data set [7] was found to be 13.4 L/kg. This molecule gave an MRT last in [9] of 4.62 h. The inhibition in [10], in data set [11] and in data set [12] was less than 50% each time. The Activity entry in the data set with HCT-116 [13] and in the data set with HCT-116 [15] was “Dose-Dependent Effect” each time. Besides, the result with HCT-116 [14], with HCT-116 [16], in the data set on HCT-116 [17] and in the data set on HCT-116 [18] was Active.

The values are drawn from ChEMBL document CHEMBL5518230, “Identification of a Novel Selective CDK9 Inhibitor for the Treatment of CRC: Design, Synthesis, and Biological Activity Evaluation” (J Med Chem, 2024).
